Measured values as given in US8841269B2, “Polynucleotides for use in treating and diagnosing cancers” (Creighton University, priority 2010, dated 2014).
Entries after “also recorded” stand apart in the source; their conditions may differ.

How the values were obtained:
[1] = tested on: 3′ UTR of human ER-α gene; assay: Luciferase reporter assay, ER-α 3′ UTR let-7 binding site in pMIR-REPORT; type: cell-based; conditions: MCF7 cells; for luciferase activity, ER-α binding site in 3′UTR of luciferase: 60 nmol/L mimics, vs negative control miRNA; for luciferase activity, mutated ER-α binding sequence: mutated sequence in 3′UTR of luciferase
Text: Luciferase assay. A fragment of the 3′ UTR of human ER-α gene, which contains the putative let-7 target sites, was synthesized (IDT technology). With attached SpeI and HindIII restriction sites, the fragments are 48 by long. The sense strand was 5′-[…] (SEQ ID NO:39) while the antisense strand was 5′-[…] (SEQ ID NO:40). The cloning and transfection followed previous protocol (Hu et al., 2009, J Immunol 183:1617-24). Sixty nanomolar let-7 mimics, anti-let-7 inhibitors, pre-miR negative control #1 (AM17110, Ambion), or anti-miR negative control #1 (AM17010, Ambion) were transfected together with a 0.25 μg luciferase construct and a 0.25 μg β-galactosidase plasmid, which were used as a normalization reference. After 24 hour post-transfection, the luciferase activity was measured in a Veritas Microplate Luminometer (Turner Biosystems). Every treatment had 3 replicates. The luciferase activity was expressed as a fraction of negative control.

[2] = Real-time PCR quantification of mature let-7 after mimic transfection in MCF7; type: cell-based, human; conditions: for rank of forced expression throughout the time course: MCF7, relative quantity against RNU48
Experimental: Quantitative real-time PCR. For miRNA quantification in FFPE tissues, total RNA was extracted as described above; for miRNA quantification in cell lines, total RNA was isolated using mirVana miRNA Isolation Kit (Ambion Inc.). cDNA was synthesized by using 100 ng total RNA in a reaction volume of 15 μL, by following the protocol of Taqman miRNA Reverse Transcription Kit (Applied Biosystems). After 15 times dilution, 9 μL cDNA was used for real-time PCR in a 20 μL reaction volume, including 10 μL of master mix and 1 μL Taqman probe (Applied Biosystems). This reaction system only detects mature miRNAs not pre-miRNAs. The level of each miRNA was expressed following the 2^−ΔΔCt or […] method using the small nuclear RNA, RNU48, as the internal reference.
For FFPE tissues, there was the same repeat number as in microarray; for cell lines, there were three biological repeats. Each sample had three technical repeats on the PCR plate. Real-time PCR was performed on an Applied Biosystems 7900HT real-time PCR instrument. PCR was initiated by two holds of 52° C. 2 min and 94° C. 10 min each, followed by 40 cycles of 15 s at 95° C. and 1 min at 60° C.

cyclin D1 = assay: Immunoblot of cyclin D1 after transfection in MCF7; type: cell-based, human; conditions: MCF7, mimics; for expression of cyclin D1 (protein): after 2 days; for protein expression of cyclin D1: after 6 days
Text: Immunoblot analysis. For Western blot in FFPE tissues, an established method was followed (Addis et al., 2009, Proteomics 9:3815-23). For MCF7 cell line, let-7 mimics and negative control miRNA (60 nmol/L), or let-7 inhibitors and anti-miR negative control (60 nmol/L) were transfected following the protocol of siPORT NeoFX Transfection Agent (Applied Biosystems), The Western blot procedure was described before (Zhang et al., 2010, J Proteome Res., 9(2):980-989). Antibody information is as follows: ER-α, RB-9016-P1, Thermoscientific; Cyclin D1, sc-8396, Santa Cruz; pS2, ab80782 was Abeam; β-Actin, sc-69879, Santa Cruz.

[3] = tested on: ER-α negative MDA-MB-231 cell line; assay: MTT cell proliferation assay in MDA-MB-231; type: cell-based, human; conditions: MDA-MB-231, DMEM with 10% FBS
Experimental: FIG. 10. The effects of let-7a, let-7b, and let-7i miRNAs on cell proliferation in ER-α negative MDA-MB-231 cell line. Cancer cell proliferation was monitored by MTT assays in the same way as in MCF7 cell line except MDA-MB-231 cells were grown in DMEM with 10% FBS.
MTT cell proliferation assay. MCF7 cells were transfected with let-7 mimics or negative controls (60 nmol/L) in normal growth medium for 1 day, or in medium with 2.5% charcoal-stripped FBS for 2 days to exhaust endogenous estrogen, following the protocol of siPORT NeoFX Transfection Agent (Applied Biosystems). For the experiment in normal growth medium, 10^4 cells in the volume of 100 μL were seeded in a 96-well plate for 12 hours and assay lasted for another 4 days. For experiments in E2 free medium, 1.5 10^4 cells were seeded in a 96-well plate for 12 hours and then exposed to 10 nmol/L E2, or not, for up to 4 days. For both experiments, each treatment had 12 replicates on the plate. The cells were then incubated in 0.83 mg/mL 3-[4,5-dimethylthiazol-2-yl]-2,5-diphenyltetrazolium bromide (MTT) in growth medium at 37° C. for 4 h and lysed in 100 μL of DMSO at room temperature for 15 min. The absorbance in each well was measured at 490 nm by an ELx800 Absorbance Microplate Reader (Biotek). Cell proliferation was normalized to day 0.

[4] = Stability of miRNAs in serum (room temperature, freeze/thaw); type: physicochemical, human; conditions: serum from a healthy person, freeze/thaw up to eight times
Experimental: (§1) FIG. 21. Stability of miRNAs in room temperature for number of time points. 300 μl of sera from a healthy person was thawed on ice and lysed with an equal volume of 2× Denaturing Solution (Ambion). RNA was isolated spiked sera using the mirVana PARIS kit following the manufacturer's protocol for liquid samples (Ambion). RNA was eluted with 50 μl of nuclease-free water. This experiment was performed in triplicates.
as §1, with “22.” for “21.”, “freeze/thaws.” for “room temperature for number of time points.”, “ice, exogenous miRNAs were spiked in,” for “ice”, “and then performed freeze/thaw cycles for the indicated times, then” for “and”
Second, we wanted to know whether our lab conditions such as temperature and freezing and thawing affect the stability of miRNAs. We selected a serum sample from healthy […], and incubated in room temperature for a series of time points (spiked three exogenous miRNAs as external controls) (FIG. 21). As expected, the selected miRNAs were very stable throughout the experiment. This observation is in consistent with the literature (Mitchell et al., 2008, Proc. Natl. Acad. Sci. U.S.A 105:10513-8). […]

[5] = MCF7, one day post transfection, 60 nmol/L each

Substance | luciferase activity, ER-α binding site in 3′UTR of luciferase [1] | luciferase activity, mutated ER-α binding sequence [1] | rank of forced expression throughout the time course [2] | expression of cyclin D1 (protein) (cyclin D1) | protein expression of cyclin D1 (cyclin D1) | cell growth (MTT) [3] | stability in repeated freeze/thaws [4] | expression of let-7b relative to let-7a and let-7i ([2]; MCF7, after 2 days) | mature let-7b level relative to let-7a ([2]; MCF7, after 6 days) | mature let-7b level relative to let-7a [2, 5] | mature let-7b level relative to let-7i [2, 5]
let-7i: let-7i miRNA (mimic), 3′-UUGUCGUGUUUGAUGAUGGAGU-5′ (SEQ ID NO:14) (chemistry not given here; listed 3' to 5') | decreased the luciferase activity; also recorded: significantly inhibited the luciferase activity | abrogated the effects; also recorded: did not show inhibition | in the middle | significantly inhibited | modest effect | None of three miRNAs significantly inhibited cell growth | relatively stable |  |  |  | 
let-7b: let-7b miRNA (mimic), 3′-UUGGUGUGUUGGAUGAUGGAGU-5′ (SEQ ID NO:8) (chemistry not given here; listed 3' to 5') | decreased the luciferase activity; also recorded: significantly inhibited the luciferase activity | abrogated the effects; also recorded: did not show inhibition | highest expression | significantly inhibited | significantly decreased | None of three miRNAs significantly inhibited cell growth | relatively stable | 2 | ~10 | ~20 | ~6
